Measurements: ChEMBL document CHEMBL1157539, “Thousands of chemical starting points for antimalarial lead identification” (Nature, 2010)

The compounds below were run on Plasmodium falciparum (assay: GSK_TCMDC: Inhibition of Plasmodium falciparum 3D7 in whole erythrocytes, using parasite LDH activity as an index of growth.). Details: Plasmodium falciparum, 3D7.
Format: functional, organism-based
`CO/C(=C\C=C/c1cc2cc(Cl)c(Cl)cc2[nH]1)C(=O)NC1CC(C)(C)N(C)C(C)(C)C1` was tested, and the XC50 was 833 nM.
Work on `CCN(CC)CCN(CCCc1ccc(-c2ccc(C(F)(F)F)cc2)cc1)C(=O)Cn1c(CCc2cccc(F)c2F)nc(=O)c2c1CCC2` yielded an XC50 of 828 nM.
In the case of `CCN(CC)CCN(Cc1ccc(-c2ccc(Cl)cc2)cc1)C(=O)Cn1c(CCc2cccc(F)c2F)nc(=O)c2ccccc21`, the XC50 is reported as 769 nM.
`Cc1cc(F)ccc1Nc1nc(N(C)c2ccccc2)c2cc(OCCCN(C)C)ccc2n1` showed an XC50 of 717 nM.
For `CC1CCCC(NCc2c(O)ccc3ccccc23)C1` (centres undefined), the XC50 was 931 nM.
For `COc1ccc(CCNC(=O)c2cc3c(=O)n4cccc(C)c4nc3n(C)c2=N)cc1`, the XC50 was 762 nM.
With `O=C(NC1CC1)c1ccc(Cn2c(SCc3cccc([N+](=O)[O-])c3)nc3ccccc3c2=O)cc1` the XC50 was 764 nM.
For `O=[N+]([O-])c1cccc(Nc2nccc(-c3cnn4ncccc34)n2)c1`, the XC50 was 184 nM.
In the case of `Cc1nnc2sc(-c3cccc(NC(=O)c4ccc(N5CCCCC5)c([N+](=O)[O-])c4)c3)nn12`, the XC50 is reported as 1300 nM.
Compound `O=C(N[C@@H](CC1CCCCC1)C(=O)NCCN1CCOCC1)c1ccc(O)c(-c2ccc(Cl)c(Cl)c2)c1` has an XC50 of 181 nM.
Compound `O=C(/C=C/c1ccc(O)cc1)NC1CCC(CN2CCC(c3c[nH]c4ccccc34)CC2)CC1` (centres undefined) has an XC50 of 744 nM.
Work on `O=c1c(NCCCN(Cc2ccc(F)cc2)c2ccccn2)c(NCc2ccncc2)c1=O` yielded an XC50 of 153 nM.
For `COc1cc2c(c(Cl)c1OC)CCN(C(=O)C(F)(F)F)CC2c1ccccc1` (centres undefined), the XC50 was 441 nM.
`CCOC(=O)c1c(CN(CC)CC)n(-c2ccccc2)c2cc(Br)c(O)cc12` gave an XC50 of 998 nM.
For `Cc1cc(N[C@@H](Cc2ccccc2)C(=O)NCCc2ccccc2)nc(NCC2CCCCC2)n1`, the XC50 was 917 nM.
For `O=C(/C=C/c1ccc(Cl)c(Cl)c1)NCCCCCN1CC[C@H](NC(=O)Nc2ccc(Oc3ccccc3)cc2)C1`, the XC50 was 703 nM.
With `Cc1cccc2nc(-c3cccc(-c4cccc(NC(=O)c5ccncc5)c4)c3)[nH]c12` the XC50 was 236 nM.
For `COc1cc(-c2cc3cc(Cl)c(Cl)cc3[nH]2)ccc1C(=O)NC1CCN(Cc2ccccc2)CC1`, the XC50 was 531 nM.
For `Cc1cc(C(F)(F)F)cc(-n2ncc(-c3ccc(C(=O)NCCNCc4ccccc4)cc3)c2N)n1`, the XC50 was 1070 nM.
For `Cc1cc(CNCCCCCCNCc2ccc(Cl)cc2)ccc1O`, the XC50 was 823 nM.
With `O=C(/C=C/c1ccc(Cl)c(Cl)c1)N1CCC(CCCN2CCC(c3c[nH]c4ccccc34)CC2)CC1` the XC50 was 707 nM.
Compound `Cc1cccc2nc(-c3cccc(-c4ccc(C(=O)NCCc5ccc(O)c(=O)[nH]5)cc4)c3)[nH]c12` has an XC50 of 1190 nM.
Work on `Oc1ccccc1Nc1nc(NCc2ccco2)c2ccccc2n1` yielded an XC50 of 644 nM.
Work on `Cc1nc(N)nc(N)c1CCCOc1ccc(Br)cc1` yielded an XC50 of 485 nM.
Compound `Cc1nc(C)c(-c2ccc(C(=O)c3ccc(Cl)cc3)cc2)c(O)c1Cl` has an XC50 of 535 nM.
`Clc1ccc(-c2ccc(C=NNc3nc(=Nc4ccccc4)[nH]c(=Nc4ccccc4)[nH]3)o2)cc1Cl` was tested, and the XC50 was 736 nM.
With `CC(=O)c1ccc(NC(=O)CSc2nc(-c3ccccc3Cl)ns2)cc1` the XC50 was 1130 nM.
With `COc1ccc(NC(=O)Nc2ccc(-c3ccccc3)cc2)cc1Cn1cnc(N2CCCNCC2)cc1=O` the XC50 was 759 nM.
`COc1cccc(NC(=O)Nc2ccc(Nc3nc(C)cc(N4CCCC4)n3)cc2)c1` showed an XC50 of 198 nM.
`COCCCN=C(S)NN=C(C)c1ccccn1` was tested, and the XC50 was 296 nM.
`CC(C)CNCc1ccc(OCc2cccc(COc3ccc(CNCC(C)C)cc3I)c2)c(I)c1` showed an XC50 of 772 nM.
Compound `c1ccc(CNCc2cccc(-c3csc(-c4nc5ccccc5[nH]4)c3)c2)cc1` has an XC50 of 456 nM.
`COC(=O)c1ccccc1N1CCN(CCCCNC(=O)c2ccc(NC(=O)c3cc(Cl)cc(Cl)c3)cc2)CC1` was tested, and the XC50 was 558 nM.
`CC(=O)c1c(Cc2ccccc2Cl)c[nH]c1C` showed an XC50 of 848 nM.
`Cc1cc(N[C@@H](Cc2ccccc2)C(=O)NCCOc2ccccc2)nc(Nc2ccccc2)n1` was tested, and the XC50 was 875 nM.
With `COc1nc2c(CCN3CC[C@H](NCc4ccc5c(c4)NC(=O)CO5)[C@H](O)C3)c(Cl)cnc2cc1F` the XC50 was 1020 nM.
`CCC(C)NS(=O)(=O)c1ccc2nc(Nc3ccc(C)cc3)n(C3CCCCC3)c2c1` (centres undefined) showed an XC50 of 462 nM.
`CCCCCCCN1CC[C@@H](CCCc2ccnc3ccc(OCCCCNC(N)=O)cc23)[C@@H](CC)C1` showed an XC50 of 835 nM.
`Cc1nc(C)c(CC(=O)Nc2ccc(-c3cccc(-c4nc5cccc(C)c5[nH]4)c3)cc2)s1` gave an XC50 of 596 nM.
Compound `Cc1noc(-c2ccccc2)c1CN1CCCC2(CC(C(=O)NCc3cccc(F)c3F)=NO2)C1` (centres undefined) has an XC50 of 1010 nM.
With `N#Cc1ccc(N[C@@H](CC2CCCCC2)C(=O)N[C@@H]2CCCc3ccccc32)c2ccccc12` the XC50 was 728 nM.
In the case of `CCCCCCCCc1c(C)nc(C)c(I)c1O`, the XC50 is reported as 737 nM.
`Cc1[nH]c(C)c(-c2ccc(-c3cccc(Cl)c3)nc2)c(=O)c1Br` gave an XC50 of 318 nM.
Work on `CCCCCC(C)C(C)c1cc(O)c2c(c1)OC(C)(C)c1cnccc1-2` (centres undefined) yielded an XC50 of 770 nM.
`O=C(NCCCN1CCC(Cc2ccccc2)CC1)c1cc2c(Cl)nc3ccccc3c2s1` was tested, and the XC50 was 744 nM.
`O=C1CCCN1CCCNCc1ccc(-c2ccc(-c3nc4cc(C(F)(F)F)ccc4[nH]3)s2)cc1` was tested, and the XC50 was 380 nM.
Compound `O=C(Nc1nc2cc(S(=O)(=O)NCc3ccc(Cl)c(Cl)c3)ccc2n1CCCn1ccnc1)c1ccc(Cl)cc1` has an XC50 of 727 nM.
Compound `c1ccc(Oc2ccc(Nc3ccnc(Nc4cccc(CNCCCN5CCOCC5)c4)n3)cc2)cc1` has an XC50 of 1040 nM.
Compound `O=C(Nc1cncc(NC(=O)c2ccc(Cl)c(Cl)c2)c1)c1ccc(Cl)c(Cl)c1` has an XC50 of 730 nM.
For `CC(C)(C)c1nn(-c2ccccc2)c2[nH]c(=O)c(CNCc3ccccc3)cc12`, the XC50 was 1050 nM.
Work on `CC(C)COc1ccc(Cl)cc1Cc1ccc(-c2nc3cc(F)c(F)cc3[nH]2)o1` yielded an XC50 of 894 nM.
`CC(=O)Nc1ccc(S(=O)(=O)N2CCN(c3nc(NC4CCCC4)c4ccccc4n3)CC2)cc1` showed an XC50 of 1030 nM.
In the case of `CCc1ccc(NC(=O)c2ccc(CN3CCCN(Cc4cccc(Cl)c4)CC3)cc2)cc1`, the XC50 is reported as 1110 nM.
In the case of `COc1cccc(Nc2nc(Nc3cccc(C#N)c3)cc(C(F)(F)F)n2)c1`, the XC50 is reported as 834 nM.
Work on `Cc1ccc(-c2cc(C(=O)Nc3ccc(S(=O)(=O)N(C)Cc4ccccc4)cc3)[nH]n2)c(O)c1` yielded an XC50 of 845 nM.
Work on `COc1cc(C(=O)Nc2cccc(-c3nc4ccccc4[nH]3)c2)cc(OC)c1OC` yielded an XC50 of 723 nM.
Work on `CN1CCN(c2ccc(CNc3ccc4ncc(-c5cccc(OC(F)(F)F)c5)n4n3)cc2)CC1` yielded an XC50 of 862 nM.
In the case of `COc1ccc2nccc([C@@H](O)CN3CCC(NC(=O)c4cc5cccnc5[nH]4)CC3)c2c1`, the XC50 is reported as 894 nM.
`COc1ccc(-c2ccc(NC(=O)c3ccc(F)cc3)cc2)cc1CNC(C)C` gave an XC50 of 758 nM.
`Cc1ccc(N2C(N)=NC(N)=NC2(C)C)cc1` was tested, and the XC50 was 36.6 nM.
For `O=C(/C=C/c1ccc(CNCCN2CCOCC2)cc1)NCCc1ccccc1`, the XC50 was 864 nM.
`CCOc1ccc2c(=NN=Cc3cccc(Cl)c3)cc(C)[nH]c2c1` gave an XC50 of 864 nM.
Compound `c1cc(CN2CCN(c3ccncc3)CC2)cc(-c2cccc(-c3nc4ccccc4[nH]3)c2)c1` has an XC50 of 126 nM.
`COc1ccc(-c2cccc(CNC3CCN(C)CC3)c2)cc1S(=O)(=O)NCc1ccccc1` showed an XC50 of 874 nM.
With `COc1cccc(-c2csc(C(=O)NC3CCCCN(Cc4ccc(C(C)(C)C)cc4)C3)c2)c1` (centres undefined) the XC50 was 887 nM.
In the case of `CCCN(Cc1nnc(-c2ccco2)o1)C(=O)C1CCCN(C(=O)c2ccc(Cl)cc2)C1` (centres undefined), the XC50 is reported as 518 nM.
`CN(Cc1cccc(O)c1)C1CCN(c2cc(NC(=O)c3ccc(F)cc3)ccn2)C1` (centres undefined) showed an XC50 of 1150 nM.
`CN(C)S(=O)(=O)n1ccc2c3c(N)nc(N)nc3ccc21` was tested, and the XC50 was 45.9 nM.
`CCCC(CNCc1ccc(Cl)c(C(F)(F)F)c1)CNc1nc2cnccc2[nH]1` (centres undefined) gave an XC50 of 291 nM.
Work on `O=C(Nc1ccc(Cl)c(Cl)c1)Nc1cc(C(F)(F)F)ccc1Cl` yielded an XC50 of 1440 nM.
In the case of `CC(Nc1cc(-c2ccccn2)nc(-c2ccccn2)n1)c1ccccc1` (centres undefined), the XC50 is reported as 453 nM.
For `Oc1ccc(CN2CCN(CCOC(c3ccccc3)c3ccc(Cl)cc3)CC2)cc1Cl` (centres undefined), the XC50 was 858 nM.
Compound `N=C(N)NC(=O)Nc1cc(Cl)c(F)c(Cl)c1` has an XC50 of 635 nM.
`O=S(=O)(c1c(Cl)cc(Cl)cc1Cl)N1CCCCC(c2ccc(F)c(F)c2)=N1` gave an XC50 of 594 nM.
`CCc1c[nH]c2c(N(c3ccccc3)S(C)(=O)=O)cc(C(=O)N[C@@H](Cc3ccccc3)[C@H](O)CNC(C)(C)CCCC(C)C)cc12` gave an XC50 of 823 nM.
With `COC(=O)c1ccc2nc(-c3ccc(/C=C/C(=O)NC4CCN(Cc5ccccc5)CC4)cc3)[nH]c2c1` the XC50 was 711 nM.
In the case of `Cc1ccccc1Nc1cc(Nc2ccccc2C)c2ccccc2n1`, the XC50 is reported as 782 nM.
For `Cc1csc(NC2=NCCN2)n1`, the XC50 was 471 nM.
`CC(=O)c1c(CC(=O)O)c2ccccc2n1O` was tested, and the XC50 was 735 nM.
`COc1ccc2nc3cc(Cl)ccc3c(Nc3ccc(O)c(CNC(C)C)c3)c2c1` gave an XC50 of 140 nM.
Work on `CC(=O)Nc1[nH]c(-c2ccccc2)nc1C(N)=O` yielded an XC50 of 249 nM.
Work on `CC(Cc1ccc(OCc2ccccc2)cc1)NCC(O)c1cccc(Cl)c1` (centres undefined) yielded an XC50 of 547 nM.
Work on `Cc1ccccc1OCCCc1c(C)nc(N)nc1N` yielded an XC50 of 277 nM.
In the case of `CCN1CCN(CCNc2c3ccccc3nc3ccccc23)CC1`, the XC50 is reported as 1020 nM.
In the case of `O=C(O)c1cccnc1Sc1ccc(Cl)cc1`, the XC50 is reported as 830 nM.
For `CN1CCN(Cc2ccc(-c3ccc4c(Nc5cc(O)c(F)cc5Cl)ccnc4c3)o2)CC1`, the XC50 was 132 nM.
For `Cc1cc(N[C@@H](CC(C)C)C(=O)NCc2cccc(F)c2)nc(NCCc2ccc(F)cc2)n1`, the XC50 was 1470 nM.
`CN(C)C=Nc1ccc(OCCCCCCOc2ccc(N=CN(C)C)cc2)cc1` gave an XC50 of 132 nM.
For `Cc1cccc2nc(-c3cccc(-c4cccc(NC(=O)NCc5ccccc5)c4)c3)[nH]c12`, the XC50 was 521 nM.
`COc1cc2nc(NCCCOC(C)C)n3nc(-c4ccccc4)nc3c2cc1OC` was tested, and the XC50 was 196 nM.
In the case of `Cc1cc(C)n2nc(C(=O)Nc3cc(C(F)(F)F)ccc3N3CCOCC3)nc2n1`, the XC50 is reported as 119 nM.
With `Cc1noc(C)c1-c1ccc2c(Nc3ccc([N+](=O)[O-])cc3)c(C(N)=O)cnc2c1` the XC50 was 692 nM.
Compound `COc1ccc(NC(=O)/C=C/c2ccccc2Cl)cc1OCCN1CCC(NCc2cccnc2)CC1` has an XC50 of 761 nM.
`CC(=O)c1cccc(NC(=O)N2CCCN(CCCCCNC(=O)/C=C/c3ccc(Cl)c(Cl)c3)CC2)c1` gave an XC50 of 1010 nM.
`Cc1ccc(-c2ccc(NC(=O)N3CCc4cc(Br)c(N5CCN(C)CC5)cc43)cc2)cn1` showed an XC50 of 1350 nM.
In the case of `CC(C)(C)c1ccc(NC(=O)Nc2ccc(Cn3ncc(N4CCCNCC4)c(Cl)c3=O)cc2)cc1`, the XC50 is reported as 752 nM.
Work on `CC[C@H]1C[N+]2([O-])CC[C@@H]1C[C@H]2[C@H](O)c1cc(-c2ccccc2)nc2ccc(OC)cc12` yielded an XC50 of 840 nM.
Compound `CS(=O)(=O)Nc1cccc(-c2cnc3[nH]cc(-c4ccc(CCC(=O)O)cc4)c3c2)c1` has an XC50 of 1060 nM.
With `COc1ccc(CCN(C)CCOc2ccc(NC(=O)c3cccc4cc5ccccc5nc34)cc2)cc1OC` the XC50 was 680 nM.
